Results published in patent publication US20080208039A1, “System and method of performing therapeutic endovascular interventions” (Wisconsin Alumni Research Foundation, priority 2007, published 2008).

Assay: Diffusion of a fluorescent probe in swollen gelatin gel by FRAP
Format: physicochemical
Source text: To assess the stability of DTPA[Gd(III)] in the gelatin coating, the diffusion of a fluorescence probe in gelatin was studied by the technique of fluorescence recovery after photobleaching (FRAP). The instrument and data analysis scheme are described in Kim, S. H. and Yu, H., J. Phys. Chem. 1992, 96, 4034, which is hereby fully incorporated by reference. Fluorescein was used as the fluorescence probe due, in part, to its molecular size being roughly the same as that of DTPA[Gd(III)].
The focus of the study was to examine the possible retardation effects of gelatin concentration and cross-link density on the diffusion, which was determined at room temperature, i.e., below the gel point of gelatin. The diffusion of fluorescein probe slows down with the increase of gelatin concentration. The diffusion coefficient decreases from 1.5×10-10 to 9×10-12 m2s-1 when the concentration of gelatin increases from 9% to 40%. […] Accordingly, the probe diffusion is more likely controlled by the concentration of gelatin rather than the cross-link density. On the other hand, the cross-link density may determine the swelling ratio of gelatin, i.e., the concentration of gelatin in aqueous solution. […]

Row | Structure (SMILES) | time to diffuse out of the gelatin coating (coating thickness 60 μm, diffusion coefficient 9×10-12 m2s-1) | fluorescence remaining in gelatin films after soaking (gelatin films soaked in water for 18 hours, including films not cross-linked)
1 | O=C(O)CN(CCN(CC(=O)O)CC(=O)O)CCN(CC(=O)O)CC(=O)O [DTPA, diethylenetriaminepentaacetic acid] | about 67 seconds | –
2 | O=C1OC2(c3ccc(O)cc3Oc3cc(O)ccc32)c2ccccc21 [fluorescein] | – | still fluorescence signal
